Measured values taken from publication PMC8815074, “Development of ^11C-Labeled ASEM Analogues for the Detection of Neuronal Nicotinic Acetylcholine Receptors (α7-nAChR)” (ACS Chemical Neuroscience, 2022).

Target: T1, α7-nAChR (Rattus norvegicus, UniProt Q05941)
T1 construct: gene Chrna7; native receptor in rat brain sections
Test: radioligand autoradiography ([…] and 3H, […]) with blocking by ASEM and unlabeled KIn-83
Conditions: read-out: % of total binding displaced at 10 uM

T1 sequence (Q05941 23-502): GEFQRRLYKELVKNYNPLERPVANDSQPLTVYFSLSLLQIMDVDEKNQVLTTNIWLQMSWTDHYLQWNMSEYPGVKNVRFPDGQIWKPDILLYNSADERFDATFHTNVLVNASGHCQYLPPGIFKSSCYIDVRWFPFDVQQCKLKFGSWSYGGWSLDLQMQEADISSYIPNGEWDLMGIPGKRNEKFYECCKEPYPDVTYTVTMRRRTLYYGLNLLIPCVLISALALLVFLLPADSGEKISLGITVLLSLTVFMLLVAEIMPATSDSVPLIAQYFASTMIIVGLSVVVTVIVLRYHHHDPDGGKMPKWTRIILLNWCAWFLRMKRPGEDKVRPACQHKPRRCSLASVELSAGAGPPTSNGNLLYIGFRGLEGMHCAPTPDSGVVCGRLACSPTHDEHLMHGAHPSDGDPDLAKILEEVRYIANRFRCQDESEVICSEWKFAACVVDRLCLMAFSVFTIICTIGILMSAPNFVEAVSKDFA

`COc1cccc2c1S(=O)(=O)c1cc(N3CCN4CCC3CC4)ccc1-2` [KIn-83] showed an inhibition at 10 µM of 80%.
